According to PMC6934975, “Natural Alpha-Glucosidase Inhibitors Rapid Fishing from Cyperus Rotundus Using Immobilized Enzyme Affinity Screening Combined with UHPLC-QTOF MS” (Iranian Journal of Pharmaceutical Research : IJPR, 2019):
Read-outs that look alike come from different tables or passages of the source.

Experiments:
[1] = biological target: T1, α-Glucosidase (E.C. 3.2.1.20) from Saccharomyces cerevisiae (Saccharomyces cerevisiae, UniProt P53341); experiment: Kinetic analysis of AGH inhibition (Lineweaver-Burk plot); type: biochemical
T1 construct: purchased Sigma-Aldrich
Experimental: (§1) where AS, ASB, AC and ACB are the absorbance of sample, sample blank, control and control blank, respectively. The measurement was performed in triplicates. For kinetic analysis of AGH inhibition, a certain concentration of 0.6 U/mL AGH and different contents of sample compounds were incubated with a series of concentrations of substrate. The inhibitory kinetics of the investigated compounds was analyzed using the Lineweaver-Burk plot, double-reciprocal plot of the substrate concentration and velocity.

[2] = biological target: T1, α-Glucosidase (E.C. 3.2.1.20) from Saccharomyces cerevisiae; experiment: α-Glucosidase inhibitory activity assay in vitro (PNPG substrate, absorbance at 405 nm); type: biochemical
Description: Agilent 1290 Infinity LC-6520 Accurate-Mass QTOF-MS (Agilent Technologies, PaloAlto, CA, USA); Bruker DRX-400 (400MHz for ^1H and 100MHz for ^13C) spectrometer (Bruker, Rheinstetten, Germany); α-Glucosidase (E.C. 3.2.1.20) from Saccharomyces cerevisiae, p-nitrophenyl a-D-glucopyranoside (PNPG) and glutathione (GSH) were purchased from Sigma-Aldrich (St Louis, MO, USA). CNBr-activated Sepharose^TM 4B was purchased from Phamacia Biotech AB (Uppsala, Sweden). Distilled water was purified by a Milli-Q water purification apparatus (Millipore, Bedford, MA). All other reagents were of analytical grade.
Each of the dried ground powder (3 g) was extracted in 30 mL of 80% aqueous methanol by ultrasonic extraction for 60 min at room temperature. After centrifugation at 5000 rpm for 5 min, the combined extract was evaporated under reduced pressure to dryness. To each herb extract, DMSO was added to get 5 mg/mL solution, respectively.
The α-glucosidase inhibitory activity was determined spectrophotometrically on 96-well microplate reader. In brief, to a total of 310 μL of reaction mixture containing 265 μL of 67 mM phosphate buffer (pH 6.8), 10 μL of 3 mM glutathione, 25 μL of 10 mM p-nitrophenyl-α-D-glucopyranoside and 10 μL of investigated compounds in the wells was added 10 μL of 0.3 U/mL α-glucosidase and mixed. All the reagents used in this assay were dissolved in the same phosphate buffer (67 mM, pH 6.8). After incubation for 10 min at 37 °C, the reaction was stopped by adding […] of 0.1 M Na2CO3 solution. Then the absorbance of sample (AS) at 405 nm was recorded (SunriseTM microplate absorbance reader, Tecan, Austria). The control was the same mixture except for the investigated sample replaced by the phosphate buffer. The sample blank and control blank were the same mixtures as sample and control, respectively, except α-glucosidase was instead with phosphate buffer, respectively.
The α-glucosidase inhibition activity (%) of test sample could be calculated as
Inhibition activity (%) = […]
as §1

[3] = biological target: T2, immobilized α-glucosidase (Saccharomyces cerevisiae, UniProt P53341); experiment: AGH inhibitors screening by immobilized AGH affinity fishing with UHPLC-QTOF-MS; type: binding; conditions: C. rotundus extract; parallel control with blank sepharose supports
T2 construct: purchased Sigma-Aldrich
Experimental: a-Glucosidase (0.20 mg) was dissolved in coupling buffer (0.1 M NaHCO3 and 0.5 M NaCl at pH 8.3) at a concentration of 2.0 mg protein/mL. The protein solution was mixed with CNBr-activated Sepharose^TM 4B gel at room temperature in a ratio of […] protein solution to 5 mg Sepharose^TM powder, which would swell to about […] of wet gel. The gel slurry was rotated at room temperature for 1 h to ensure the enzyme bound to the beads. After protein coupling, the resident reactive sites on the gel were blocked by reacting with 0.01 M Tris-HCl buffer at pH 8.0 for 1 h at room temperature. […] Control supports were prepared in the same manner but with no AGH being added during the immobilization step.
200 mg ground C. rotundus powder was extracted in 20 mL of 80% aqueous methanol by ultrasonic extraction for 30 min. The extract was filtered and freeze-dried, then redissolved in 10 mL affinity buffer (67 mM KH2PO4 (containing 5% methanol) at pH 6.8) and filtered through a 0.45 μm membrane as the tested extract sample.
C. rotundus extracts (400 mL) was mixed with […] immobilized AGH gel and gently stirred at 37 °C for 20 min. After incubation with the extracts, the gel were washed with 400 mL affinity buffer (67 mM KH2PO4 (containing 5% methanol) at pH 6.8) four times to remove any unbound components and then treated with […] desorbed solution (50% methanol aqueous solution at pH 3.3) to release the captured potential inhibitors of AGH. The released components were collected and concentrated to 10 mL under N2 atmosphere at 40 °C, then applied to UPLC-QTOF-MS for peak identification. Elution from the control supports was collected and analyzed in the same manner.
UHPLC-MS was performed on an Agilent 1290 Infinity LC-6520 Accurate-Mass QTOF-MS (Agilent Corporation, CA, USA). Analytes eluted from the AGH coupling supports and control supports were separated on a poroshell 120 EC-C18 column (3.0 × 50 mm, 2.7 µm , Agilent Corporation, MA, USA). The solvent system consisted of solvent A […] and solvent B (0.5% formic acid in water, v/v). The solvent A content of the mobile phase was gradient increased from 5% to 100% linearly in 20 min.
The flow rate was set at 0.4 mL/min. Mass analysis was performed in negative ESI ion mode. The operating parameters were as follows: drying gas (N2) flow rate, 8 L/min; drying gas temperature, 325 °C; nebulizer, 30 psig; capillary, 3500 V; skimmer, 65 V; fragmentor voltage, 100 V. The mass range was set at m/z 100–2000. The system was operated under Agilent MassHunter workstation acquisition software, version B.02.01 (Agilent Corporation, MA, USA).
The extract of C. rotundus was used as the real biological sample to carry out the affinity screening procedure, just as shown in Scheme 1. Firstly, α-glucosidase was immobilized on CNBr-activated sepharose beads, while blank supports were set as control. Secondly, immobilized α-glucosidase was incubated with 300 µL of C.
rotundus extracts to launch the affinity capture procedure. The highly-affinity components in C. rotundus could be specifically captured by the enzyme and fished out from the complex matrix. Thirdly, to characterize the captured compounds, the binders were released from immobilized α-glucosidase and subsequently separated and analyzed by UHPLC-QTOF MS. It was worth mentioning that not all the molecules retained on immobilized enzyme were of highly-affinity. Some of them might be non-specifically absorbed on the blank sepharose support. To eliminate this false positive, a parallel control was carried out throughout the whole screening procedure. By subtracting the signal of false positive, the highly-affinity ingredients could be recognized correctly, and these ingredients might be potent natural AGHI in C. rotundus.

[4] = tested on: α-glucosidase; parameters: method as in PMID 24044731; conditions: cited from earlier work

T2 sequence (P53341 whole entry): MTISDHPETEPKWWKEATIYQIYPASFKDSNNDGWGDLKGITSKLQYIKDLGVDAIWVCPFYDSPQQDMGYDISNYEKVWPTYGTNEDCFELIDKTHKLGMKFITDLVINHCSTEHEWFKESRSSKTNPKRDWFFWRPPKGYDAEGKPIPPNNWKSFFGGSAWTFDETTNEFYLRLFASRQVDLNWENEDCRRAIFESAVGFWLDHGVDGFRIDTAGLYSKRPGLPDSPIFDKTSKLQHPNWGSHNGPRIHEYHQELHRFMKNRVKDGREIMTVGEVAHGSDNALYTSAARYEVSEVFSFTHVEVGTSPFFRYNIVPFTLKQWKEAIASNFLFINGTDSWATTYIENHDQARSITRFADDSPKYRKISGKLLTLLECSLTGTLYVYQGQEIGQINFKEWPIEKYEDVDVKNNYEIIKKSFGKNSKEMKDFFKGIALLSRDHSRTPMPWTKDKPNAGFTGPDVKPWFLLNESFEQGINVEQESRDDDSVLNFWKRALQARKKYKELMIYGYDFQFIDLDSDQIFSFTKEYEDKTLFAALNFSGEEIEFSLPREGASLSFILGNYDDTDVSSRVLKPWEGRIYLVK
T1 sequence (P53341 whole entry): as above

Compound	alpha-glucosidase inhibitory kinetic mode ([1]; Lineweaver-Burk plots)	Ki [1] [µM]	IC50 [2] [µM]	α-glucosidase inhibitory activity in words [2]	Affinity capture result on immobilized α-glucosidase after subtracting the blank support signal [3]	α-glucosidase inhibitors in C. rotundus (reported) [4]	Ki ([1]; Lineweaver-Burk plots, Table 2, read-out: alpha-glucosidase inhibitory Ki) [µM]	IC50 ([2]; Table 2, read-out: alpha-glucosidase inhibitory IC50) [µM]
C[C@H]1O[C@H](O[C@H]2[C@H](O)[C@@H](O)[C@@H](O[C@H]3[C@H](O)[C@@H](O)C(O)O[C@@H]3CO)O[C@@H]2CO)[C@H](O)[C@@H](O)[C@@H]1N[C@H]1C=C(CO)[C@@H](O)[C@H](O)[C@H]1O (stereo partly drawn) [Acarbose (reference), Acarbose, reference compound]	competitive	–	–	–	–	–	–	–
Oc1ccc(/C=C/c2c3c(cc4c2[C@H](c2cc(O)cc(O)c2)[C@@H](c2ccc(O)c(O)c2)O4)O[C@H](c2ccc(O)c(O)c2)[C@H]3c2cc(O)cc(O)c2)cc1 [Cyperusphenol A (1), (E)-cyperusphenol A]	Noncompetitive	11.2	1.43 ± 0.11	potent natural AGHIs	highly-affinity binders	–	–	–
Oc1cc2c3c(c1)C1c4c(cc(O)cc4C4c5c(cc(O)cc5C3C(c3ccc(O)c(O)c3)O2)OC4c2ccc(O)c(O)c2)OC1c1ccc(O)c(O)c1 (stereo not drawn) [Cyperusphenol D (3), Cyperusphenol D]	Noncompetitive	8.63	1.18 ± 0.11	potent natural AGHIs	highly-affinity binders	–	–	–
Oc1ccc(/C=C/c2c3c(cc4c2[C@@H](c2cc(O)cc(O)c2)[C@H](c2ccc(O)c(O)c2)O4)O[C@H](c2ccc(O)c(O)c2)[C@H]3c2cc(O)cc(O)c2)cc1 [Mesocyperusphenol A (2), mesocyperusphenol A]	Noncompetitive	10.7	1.44 ± 0.17	potent natural AGHIs	highly-affinity binders	–	–	–
Oc1ccc(/C=C/c2cc(O)cc3c2C(c2cc(O)cc(O)c2)C(c2ccc(O)c(O)c2)O3)cc1 (stereo not drawn) [Scirpusins A (5), Scirpusins A]	Noncompetitive	–	–	–	highly-affinity binders	natural α-glucosidase inhibitors	136	21.4 ± 1.4
Oc1cc(O)cc(C2c3c(/C=C/c4ccc(O)c(O)c4)cc(O)cc3OC2c2ccc(O)c(O)c2)c1 (stereo not drawn) [Scirpusins B (4), Scirpusins B]	Noncompetitive	95.4	13.3 ± 1.66	–	highly-affinity binders	natural α-glucosidase inhibitors	–	–
CC1=C2C(O)C3CC(O)C(C)C2(CC1O)C3(C)C (stereo not drawn) [sugetriol]	–	–	–	–	absorbed only on the support matrix	–	–	–
